Read-outs that look alike come from different tables or passages of the source.
Target: T1, PTBP1 RRM12 (Homo sapiens, UniProt P26599)
T1 construct: (P57-V265); MBP (from pMAL vector); His tag; made in house; host or cells: E. coli BL21 DE3 RIL
T1 sequence (P26599 57-265): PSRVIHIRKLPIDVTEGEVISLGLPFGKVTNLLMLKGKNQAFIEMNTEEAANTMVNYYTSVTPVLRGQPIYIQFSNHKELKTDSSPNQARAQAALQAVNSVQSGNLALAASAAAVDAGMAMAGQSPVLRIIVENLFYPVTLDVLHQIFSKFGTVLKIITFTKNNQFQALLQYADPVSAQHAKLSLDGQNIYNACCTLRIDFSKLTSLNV
Assay: Competitive fluorescence polarization assay between RRM12 and RNA-2
Format: binding
From the text: For the initial design we used the i, i + 4 strategy where two (S)-pentenyl alanines (S5) were introduced in positions with three other amino acids in between. We picked three different amino acid pairs to replace with the S5 amino acids based on their orientation as observed in the NMR structures (P-2, P-3 and P-4, Fig. 2B and C).[25] To prevent the staple from disturbing the interaction between the ligand and the protein we chose positions facing away from the binding site forming the pairs Ala145/Ala149, Gln148/Gln152, and Ala149/Ala153. The three peptides were synthesized on Rink amide resin and the linear peptides were treated with a Grubbs catalyst to connect the S5 residues. To avoid a mixture of E/Z-diastereomers we reduced the alkene in the linker of the staple using a solution phase hydrogenation protocol.[43] The linear equivalent P-1 was synthesized for comparison but had to be extended on the C-terminus with an arginine residue to improve its solubility. The C-terminus is away from the binding surface and this modification was therefore not expected to have an impact on the binding affinity. The peptides were tested in a competitive fluorescence polarization assay using the RRM12 construct and RNA-2 (Fig. 2C and S2 ^†). […] As the staple is expected to stabilize the α-helical conformation we used circular dichroism (CD) spectroscopy to evaluate the helicity of the peptides. […] It is possible that although P-4 was more helical than P-3, the replacement of Gln148 with the hydrophobic linker disturbed the interaction since the side chain amide potentially interacts with the RRM1 surface. […]
size exclusion chromatography (Superdex 75 16/60 or 26/60) with SEC buffer (50 mM Tris, 200 mM NaCl). Protein homogeneity was assessed by the size exclusion chromatogram and purity was checked by SDS-PAGE analysis to be >= 90%.
The gene encoding for SRSF1-RRM12 (1-195) was subcloned into pOPIN-His expression vector and expressed in E. coli BL21 (DE3). A pre-culture of transformed bacteria was made followed by expression in LB-Medium (100 µg/ml Ampicillin, 1 mM IPTG, 18 °C, 160 rpm overnight) after growing the culture at 37 °C, 160 rpm to an OD600 of 0.6. The harvested cells (5000 x g, 4 °C, 15 min) were resuspended in Buffer ASRSF1 (50 mM Na2HPO4 pH 8.0, 300 mM KCl, 50 mM L-Arg, 50 mM L-Gly, 1.5 mM MgCl2) supplemented with 1 mM PMSF followed by lysis through sonification. The protein was purified using a HisTrap HP 5 ml column (GE-Healthcare) using a gradient of Buffer BSRSF1 (50 mM Na2HPO4 pH 8.0, 300 mM KCl, 50 mM L-Arg, 50 mM L-Gly, 1.5 mM MgCl2, 500 mM Imidazole) followed by dialysis into wash buffer (50 mM Na2HPO4 pH 8.0, 300 mM KCl, 50 mM L-Arg, 50 mM L-Gly, 1.5 mM MgCl2, 40 mM Imidazole) and a second run of the affinity column. The protein containing fractions were afterwards dialyzed into wash buffer with tag-cleavage using His-tagged 3C protease. The cleaved construct was subsequently used for a third affinity column run collecting the unbound fraction which was dialyzed into storage buffer (20 mM Na2HPO4 pH 8.0, 150 mM KCl, 50 mM L-Arg, 50 mM L-Gly, 1.5 mM MgCl2, 0.2 mM EDTA, 1 mM TCEP).
Purification of hnRNP A2/B1
The MBP-tagged hnRNP A2/B1 construct (1-251) was expressed from a pOPIN-His-MBP vector in E. coli BL21 (DE3) RIPL cells. A pre-culture in TB (0.01% lactose, 2mM MgSO4, 100 µg/ml ampicillin, 50 µg/ml chloramphenicol) was used to inoculate the expression culture with a starting OD600 of 0.05 at 37 °C. Expression was autoinduced at 37 °C for 4 h followed by expression over night at 25 °C. Harvested cells (5000 x g, 15 min, 4 °C) were resuspended in Buffer AhnRNPA2/B1 (50 mM HEPES pH 8.0, 300 mM NACl, 20 mM Imidazole, 1 mM TCEP) supplemented with 1 mM PMSF) and lysed with a microfluidizer.
Immobilized metal affinity chromatography was performed using a HisTrap FF crude 5 ml column. The loaded protein was washed with wash buffer (50 mM HEPES pH 8.0, 300 mM NaCl, 30 mM Imidazole, […]

[1] = Fig. 2C, 5 nM FAM-RNA-2, protein at 50-70 % probe binding, FP buffer pH 8.0, 20 °C, 30 min, n.b. given for inactive peptides, read-out: Ki, competitive FP assay between RRM12 and RNA-2

SMILES: CC(=O)N[C@@H](CC(N)=O)C(=O)N[C@@H](CCC(N)=O)C(=O)N[C@@]1(C)CCCCCCCC[C@@](C)(C(=O)N[C@@H](C)C(=O)N[C@@H](CC(C)C)C(=O)N[C@@H](CCC(N)=O)C(=O)N[C@@H](C)C(=O)N[C@H](C(=O)N[C@@H](CC(N)=O)C(N)=O)C(C)C)NC(=O)[C@H](CCC(N)=O)NC(=O)[C@H](C)NC(=O)[C@H](CCCNC(=N)N)NC1=O [Peptide P-2]
- Ki [1]: 11.6 µM

SMILES: CC(=O)N[C@@H](CC(N)=O)C(=O)N[C@@H](CCC(N)=O)C(=O)N[C@@]1(C)CCCC=CCCCC2(CCCC=CCCC[C@](C)(C(=O)N[C@H](C(=O)N[C@@H](CC(N)=O)C(N)=O)C(C)C)NC(=O)[C@H](CCC(N)=O)NC(=O)[C@H](CC(C)C)NC(=O)[C@H](C)NC2=O)NC(=O)[C@H](CCC(N)=O)NC(=O)[C@H](C)NC(=O)[C@H](CCCNC(=N)N)NC1=O (stereo partly drawn) [Peptide P-6]
- Ki [1]: 9.3 µM
- Ki (Fig. 3C experiment, competitive FP with RNA-2, read-out: P-6 Ki, construct RRM12): 8 ± 7.1 µM
